Laboratory results as given in patent US6600037B1, “4,5-disubstituted-2-aminopyrimidines” (Celltech R & D Limited, priority 1999, dated 2003).

melting point [°C] | SMILES
112 to 120 | CC(C)(N)c1ccc(-c2nc(Nc3ccc(CCn4ccnc4)cc3)ncc2Cl)cc1F [Example 10, 4-[4-(1-Amino-1-methylethyl)-3-fluorophenyl]-5-chloro-N-[4-(2-(imidazol-1-yl)ethyl)phenyl]pyrimidine 2-amine]
199 to 201 | CC(C)(N)c1ccc(-c2nc(Nc3ccc(-n4ccnc4)cc3)ncc2Cl)cc1 [Example 3, 4-[4-(1-Amino-1-methylethyl)phenyl]-5-chloro-N-[4-(1-imidazolyl)phenyl]pyrimidine-2-amine]
88 | C=CCOC(=O)NC(C)(C)c1ccc(-c2nc(Nc3ccc(CCn4ccnc4)cc3)ncc2Cl)cc1F [Example 7, 4-[4-(1-Allyloxycarbonylamino-1-methylethyl)-3-fluorophenyl]-5-chloro-N-[4-(2-(imidazol-1-yl)ethyl)phenyl]pyrimidine-2-amine]
72 to 78 | C=CCOC(=O)NC(C)(C)c1ccc(-c2nc(Nc3ccc(CCn4ccnc4)cc3)ncc2Cl)cc1 [Example 5, 4-[4-(1-Allyloxycarbonylamino-1-methylethyl)phenyl]-5-chloro-N-[4-(2-(imidazol-1-yl)ethyl)phenyl]pyrimidine-2-amine]
162 to 163 | CC(C)(N)c1ccc(-c2nc(Nc3ccc(CCO)cc3)ncc2Cl)cc1 [Example 1, 4-[4-(1-Amino-1-methylethyl)phenyl]-5-chloro-N-[4-(2-hydroxyethyl)phenyl]pyrimidine-2-amine]
172 to 176 | CC(C)(N)c1ccc(-c2nc(Nc3ccc(CCO)cc3)ncc2Cl)cc1F [Example 4, 4-[4-(1-Amino-1-methylethyl)-3-fluorophenyl]-5-chloro-N-[4-(2-hydroxyethyl)phenyl]pyrimidine-2-amine]
184 to 185 | CC(C)(N)c1ccc(-c2nc(Nc3cccc(CCO)c3)ncc2Cl)cc1 [Example 2, 4-[4-(1-Amino-1-methylethyl)phenyl]-5-chloro-N-[3-(2-hydroxyethyl)phenyl]pyrimidine-2-amine]
166 to 173 | CC(C)(N)c1ccc(-c2nc(Nc3ccc(CCN4CCOCC4)cc3)ncc2Cl)cc1 [Example 9, 4-[4-(1-Amino-1-methylethyl)phenyl]-5-chloro-N-[4-(2-morpholinoethyl)phenyl]pyrimidine-2-amine]
